According to patent publication US20150238487A1, “NOVEL ERGOLINE DERIVATIVES AND USES THEREOF” (MAP Pharmaceuticals, Inc., priority 2012, published 2015):

Assays:
[1] = biological target: T1, Adrenergic α2C (Homo sapiens, UniProt P18825); assay: GTPγ[35S] assay, Adrenergic α2C; type: biochemical; settings: antagonism, CHO-K1 membranes, read-out: Activity (Antagonism: IC50), Adrenergic a2C
T1 construct: expressed in transfected cells; host or cells: CHO-K1 (membrane extracts)
Protocol: (§1) Receptor […] activity assays were performed using 8′OH-2-CF3-dihydroergotamine (8′OH-2-CF3-DHE). Table 1 summarizes the cell lines (CHO-K1/HEK293 transfected with relevant human receptor) and the assays performed to detect any agonist or antagonist activity.
(§2) GTPγS studies were conducted to monitor agonist activity for 8′OH-2CF3-dihydroergotamine (8′OH-2CF3-DHE) against the receptors indicated in Table 1 above. Reagents used were the following: Assay buffer (20 mM HEPES, pH 7.4; 100 mM NaCl; 10 μg/mL saponin; 30 mM MgCl2); Membranes (recombinant human receptor membrane extracts were thawed on ice and diluted in assay buffer to give 1000 μg/mL ([…]) and kept on ice); GDP (diluted in assay buffer to give 30 μM solution (3 μM final concentration); beads (PVT-WGA (Amersham, RPNQ001), diluted in assay buffer at 25 mg/mL (0.25 mg/10 μL)); GTPγ^35S (Perkin Elmer, NEG030X), diluted in assay buffer to give 0.1 nM (final concentration); and ligand (agonist/antagonist diluted in assay buffer).
(§3) Membranes were mixed with GDP (1:1) and incubated for at least 15 minutes on ice. In parallel GTPγ^35S was mixed with the beads (1:1) just before starting the reaction. […] The plates were then centrifuged for 10 minutes at 2000 rpm and incubated at room temperature for 1 hour and counted for 1 min/well with a Perkin Elmer TopCount reader.

[2] = system: VIP/PACAP (PAC1/VPAC1/VPAC2); assay: Aequorin assay, VIP/PACAP receptors; type: cell-based, human; settings: CHO-AEQ
Protocol: as §1
(§4) Aequorin assays were conducted to monitor activity for 8′OH-2CF3-dihydroergotamine (8′OH-2CF3-DHE) against the receptors indicated in Table 1 above (except for mGlu3 and mGlu5). CHO-K1 cells coexpressing mitochondrial apoaequorin and the recombinant human receptor of interest were grown to mid-log phase in culture media without antibiotics and then detached with PBS-EDTA, centrifuged and resuspended in assay buffer (DMEM/HAM's F12 with HEPES, without phenol red+0.1% BSA, protease free) at a concentration of 1×10^6 cell/mL. […]
(§5) 50 μL of the cell suspension was mixed with 50 μL of test or reference agonist in a 96-well plate. The resulting emission of light was recorded using Hamamatsu Functional Drug Screening System 6000 (FDSS 6000) luminometer. […]
(§6) To standardize the emission of recorded light (and determine of the “100% signal”) across plates and across different experiments, some wells contained 100 μM digitonin or a saturating concentration of ATP (20 μM).

[3] = biological target: T2, Serotonin 5-HT1B (Homo sapiens, UniProt P28222); assay: GTPγ[35S] assay, Serotonin 5-HT1B; type: biochemical; settings: agonism, CHO-K1 membranes
T2 construct: expressed in transfected cells; host or cells: CHO-K1 (membrane extracts)
T2 sequence (P28222 whole entry): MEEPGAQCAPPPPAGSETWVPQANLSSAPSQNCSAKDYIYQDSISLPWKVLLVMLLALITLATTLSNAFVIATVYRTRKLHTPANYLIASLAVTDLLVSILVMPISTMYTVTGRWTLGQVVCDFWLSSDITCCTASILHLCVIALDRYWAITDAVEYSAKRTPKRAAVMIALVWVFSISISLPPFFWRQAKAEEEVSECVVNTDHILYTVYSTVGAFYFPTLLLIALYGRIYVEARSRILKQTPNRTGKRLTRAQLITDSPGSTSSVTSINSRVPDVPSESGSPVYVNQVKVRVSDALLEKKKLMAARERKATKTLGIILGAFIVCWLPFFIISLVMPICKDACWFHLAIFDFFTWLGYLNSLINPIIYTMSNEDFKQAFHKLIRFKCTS
Protocol: as §1, §2, §3

[4] = biological target: T3, Dopamine D2L (Homo sapiens, UniProt P14416); assay: GTPγ[35S] assay, Dopamine D2L; type: biochemical; settings: agonism, CHO-K1 membranes
T3 construct: expressed in transfected cells; host or cells: CHO-K1 (membrane extracts)
T3 sequence (P14416 whole entry): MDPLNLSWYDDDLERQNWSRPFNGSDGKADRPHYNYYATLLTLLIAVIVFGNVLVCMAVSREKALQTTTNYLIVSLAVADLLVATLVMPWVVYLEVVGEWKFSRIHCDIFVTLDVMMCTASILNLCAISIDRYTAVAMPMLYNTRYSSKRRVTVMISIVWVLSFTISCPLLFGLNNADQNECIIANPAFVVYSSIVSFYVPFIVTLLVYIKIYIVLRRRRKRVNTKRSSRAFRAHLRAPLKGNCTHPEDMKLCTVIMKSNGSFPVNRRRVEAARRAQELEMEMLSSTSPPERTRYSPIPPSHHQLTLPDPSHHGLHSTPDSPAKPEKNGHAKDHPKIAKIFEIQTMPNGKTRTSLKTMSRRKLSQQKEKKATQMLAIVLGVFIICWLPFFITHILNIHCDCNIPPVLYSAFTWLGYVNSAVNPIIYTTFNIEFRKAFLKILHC
Protocol: as §1, §2, §3

[5] = biological target: T4, Adrenergic α1A (Homo sapiens, UniProt P35348); assay: Aequorin assay, Adrenergic α1A; type: cell-based; settings: antagonism, CHO-K1 mAeq, read-out: Activity (Antagonism: IC50), Adrenergic a1A
T4 construct: expressed in transfected cells; host or cells: CHO-K1 mAeq
T4 sequence (P35348 whole entry): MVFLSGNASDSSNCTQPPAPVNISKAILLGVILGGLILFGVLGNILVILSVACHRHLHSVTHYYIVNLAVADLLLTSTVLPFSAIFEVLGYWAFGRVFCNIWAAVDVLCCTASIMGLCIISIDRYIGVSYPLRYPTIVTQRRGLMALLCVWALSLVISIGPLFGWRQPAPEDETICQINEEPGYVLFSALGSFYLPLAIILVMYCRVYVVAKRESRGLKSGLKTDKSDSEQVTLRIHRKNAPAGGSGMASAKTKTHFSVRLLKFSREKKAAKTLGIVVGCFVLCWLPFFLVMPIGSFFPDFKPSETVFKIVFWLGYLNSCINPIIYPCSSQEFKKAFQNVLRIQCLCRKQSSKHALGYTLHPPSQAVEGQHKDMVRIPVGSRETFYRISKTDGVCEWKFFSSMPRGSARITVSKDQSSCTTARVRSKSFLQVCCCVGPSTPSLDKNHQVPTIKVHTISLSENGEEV
Protocol: as §1, §4, §5, §6

[6] = biological target: T5, Serotonin 5-HT2A (Homo sapiens, UniProt P28223); assay: Aequorin assay, Serotonin 5-HT2A; type: cell-based; settings: agonism; CHO-K1 mAeq Gα16, Aequorin
T5 construct: expressed in transfected cells; host or cells: CHO-K1 mAeq Gα16
T5 sequence (P28223 whole entry): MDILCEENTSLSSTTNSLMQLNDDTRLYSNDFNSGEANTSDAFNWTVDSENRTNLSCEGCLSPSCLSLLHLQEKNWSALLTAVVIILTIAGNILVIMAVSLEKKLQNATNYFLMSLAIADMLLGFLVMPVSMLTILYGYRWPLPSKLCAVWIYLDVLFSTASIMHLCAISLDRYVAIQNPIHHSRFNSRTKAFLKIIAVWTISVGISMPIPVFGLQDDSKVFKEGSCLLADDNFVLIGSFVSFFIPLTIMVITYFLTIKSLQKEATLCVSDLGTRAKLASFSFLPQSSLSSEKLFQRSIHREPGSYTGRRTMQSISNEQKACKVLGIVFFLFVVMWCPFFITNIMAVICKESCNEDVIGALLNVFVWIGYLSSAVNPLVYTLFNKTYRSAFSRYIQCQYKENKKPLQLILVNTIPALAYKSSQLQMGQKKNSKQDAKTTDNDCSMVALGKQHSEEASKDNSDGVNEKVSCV
Protocol: as §1, §4, §5, §6

[7] = biological target: T6, Dopamine D1 (Homo sapiens, UniProt P21728); assay: cAMP HTRF assay, Dopamine D1; type: cell-based; settings: CHO-K1, cAMP
T6 construct: expressed in transfected cells; host or cells: CHO-K1
T6 sequence (P21728 whole entry): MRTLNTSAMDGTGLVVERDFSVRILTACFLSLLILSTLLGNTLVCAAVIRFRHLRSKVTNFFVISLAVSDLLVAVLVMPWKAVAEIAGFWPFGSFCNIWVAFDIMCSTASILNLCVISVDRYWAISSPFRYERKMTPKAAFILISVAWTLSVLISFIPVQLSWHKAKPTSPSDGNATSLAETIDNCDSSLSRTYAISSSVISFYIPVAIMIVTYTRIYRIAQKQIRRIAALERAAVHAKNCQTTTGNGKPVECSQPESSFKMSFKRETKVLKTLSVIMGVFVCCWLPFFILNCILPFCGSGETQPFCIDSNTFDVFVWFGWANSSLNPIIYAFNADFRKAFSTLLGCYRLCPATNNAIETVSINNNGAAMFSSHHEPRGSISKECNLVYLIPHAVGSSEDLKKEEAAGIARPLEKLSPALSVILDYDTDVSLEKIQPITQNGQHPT
Protocol: as §1
cAMP HTRF (Gs) studies were conducted to monitor activity for 8′OH-2CF3-dihydroergotamine (8′OH-2CF3-DHE) against the receptors indicated in Table 1 above. Cells expressing the human recombinant receptor of interest were grown in media without antibiotic and detached by gentle flushing with PBS-EDTA (5 mM EDTA), recovered by centrifugation and resuspended in assay buffer (KRH: 5 mM KCl, 1.25 mM MgSO4, 124 mM NaCl, 25 mM HEPES, 13.3 mM glucose, 1.25 mM KH2PO4, 1.45 mM CaCl2, 0.5 g/L BSA). Dose response curves were performed in parallel with the reference compounds. For agonist tests (96-well plates), 12 μL of cells was mixed with 12 μL of the test compound at increasing concentrations and then incubated for 30 minutes at room temperature. Lysis buffer was added and after a 1 hour incubation, cAMP concentrations was determined according to the manufacturer specification with the HTRF kit. […] Lysis buffer was added and after a 1 hour incubation, cAMP concentrations were determined according to the manufacturer specification, with the HTRF kit.

T1 sequence (P18825 whole entry): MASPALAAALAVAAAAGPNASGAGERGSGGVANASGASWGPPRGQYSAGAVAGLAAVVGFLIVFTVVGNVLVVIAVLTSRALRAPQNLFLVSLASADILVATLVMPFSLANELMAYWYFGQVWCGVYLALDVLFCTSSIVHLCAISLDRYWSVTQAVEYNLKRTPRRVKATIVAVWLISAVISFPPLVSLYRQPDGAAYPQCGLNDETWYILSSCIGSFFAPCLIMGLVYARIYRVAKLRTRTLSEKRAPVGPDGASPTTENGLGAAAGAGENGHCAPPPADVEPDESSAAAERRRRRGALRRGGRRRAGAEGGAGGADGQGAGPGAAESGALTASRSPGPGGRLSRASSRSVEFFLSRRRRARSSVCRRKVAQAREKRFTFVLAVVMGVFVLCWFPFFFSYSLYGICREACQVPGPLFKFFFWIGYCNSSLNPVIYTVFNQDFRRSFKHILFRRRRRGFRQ

CN1C[C@H](C(=O)N[C@]2(C)O[C@@]3(O)[C@@H]4CC[C@@H](O)N4C(=O)[C@H](Cc4ccccc4)N3C2=O)C[C@@H]2c3cccc4[nH]c(C(F)(F)F)c(c34)C[C@H]21 [8′OH-2-CF3-DHE, 8′-Hydroxy-2-CF3-dihydroergotamine]
IC50 [1]: > 10000 nM
Activity (Agonism: EC50; Antagonism: IC50), VIP/PACAP (PAC1/VPAC1/VPAC2) [2]: Inactive
EC50 [3]: 405 nM
EC50 [4]: 17.3 nM
IC50 [5]: 39.5 nM
EC50 [6]: 607 nM
Activity (Agonism: EC50; Antagonism: IC50), D1 [7]: Inactive
